Assay results taken from US9738634B2, “Heterocyclic amide compound and herbicide” (SYNGENTA PARTICIPATIONS AG, priority 2013, dated 2017).

Legend:
Type in all cases: in vivo
oval-leafed pondweed [1] = assay: Test Example 2: weedkilling efficacy, growth period weed treatment in the submerged state; C: oval-leafed pondweed
Outline: (§1)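 Weeds treated at the 1-2 leaf stage by application of diluted emulsion onto floodwater (4 cm depth, alluvial soil) at specified g/ha. Grown in greenhouse at 25 to 30° C; herbicidal effect rated three weeks after treatment.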

catchweed = assay: Test Example 3: weedkilling efficacy through soil treatment; O: catchweed; settings: soil treatment, treatment dosage 320 g/ha
Outline: (§2)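 Crop and weed responses were judged three weeks after a uniform surface spray of the water-diluted emulsion at the given g/ha rate. Seeds sat beneath about 1.5 cm of sterilized diluvial soil, and boxes stood in a greenhouse at 25 to 30° C.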

rapeseed = assay: Test Example 3: soil treatment, effect on crop; g: rapeseed; settings: soil treatment, treatment dosage 320 g/ha
Outline: as §2

wheat = assay: Test Example 3: soil treatment, effect on crop; e: wheat; settings: soil treatment, treatment dosage 320 g/ha
Outline: as §2

Italian ryegrass = assay: Test Example 3: weedkilling efficacy through soil treatment; I: Italian ryegrass; settings: soil treatment, treatment dosage 320 g/ha
Outline: as §2

green foxtail = assay: Test Example 3: weedkilling efficacy through soil treatment; E: green foxtail; settings: soil treatment, treatment dosage 320 g/ha
Outline: as §2

crabgrass = assay: Test Example 3: weedkilling efficacy through soil treatment; D: crabgrass; settings: soil treatment, treatment dosage 320 g/ha
Outline: as §2

soybean = assay: Test Example 3: soil treatment, effect on crop; d: soybean; settings: soil treatment, treatment dosage 320 g/ha
Outline: as §2

bulrush [2] = assay: Test Example 2: weedkilling efficacy, growth period weed treatment in the submerged state; B: bulrush
Outline: as §1

common wind-grass = assay: Test Example 3: weedkilling efficacy through soil treatment; J: common wind-grass; settings: soil treatment, treatment dosage 320 g/ha
Outline: as §2

corn = assay: Test Example 3: soil treatment, effect on crop; c: corn; settings: soil treatment, treatment dosage 320 g/ha
Outline: as §2

transplanted rice = assay: Test Example 1: preemergent weed treatment in the submerged state, effect on crop; a: transplanted rice
Outline: (§3)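 Pots of alluvial soil were flooded to a 4 cm depth. Mixed weed seeds were sown and 2.5 leaf-stage rice seedlings transplanted. On sowing day, water-diluted emulsion was applied to the water surface (dose in g/ha). After 3 weeks at 25–30 °C, effects were rated.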

fig-leafed goosefoot = assay: Test Example 3: weedkilling efficacy through soil treatment; M: fig-leafed goosefoot; settings: soil treatment, treatment dosage 320 g/ha
Outline: as §2

directly sown rice = assay: Test Example 3: soil treatment, effect on crop; b: directly sown rice; settings: soil treatment, treatment dosage 320 g/ha
Outline: as §2

bulrush [3] = assay: Test Example 1: weedkilling efficacy, preemergent weed treatment in the submerged state; B: bulrush
Outline: as §3

oval-leafed pondweed [4] = assay: Test Example 1: weedkilling efficacy, preemergent weed treatment in the submerged state; C: oval-leafed pondweed
Outline: as §3

wild oat = assay: Test Example 3: weedkilling efficacy through soil treatment; G: wild oat; settings: soil treatment, treatment dosage 320 g/ha
Outline: as §2

Indian mallow = assay: Test Example 3: weedkilling efficacy through soil treatment; K: Indian mallow; settings: soil treatment, treatment dosage 320 g/ha
Outline: as §2

barnyard grass [5] = assay: Test Example 2: weedkilling efficacy, growth period weed treatment in the submerged state; A: barnyard grass
Outline: as §1

redroot pigweed = assay: Test Example 3: weedkilling efficacy through soil treatment; L: redroot pigweed; settings: soil treatment, treatment dosage 320 g/ha
Outline: as §2

beet = assay: Test Example 3: soil treatment, effect on crop; f: beet; settings: soil treatment, treatment dosage 320 g/ha
Outline: as §2

black-grass = assay: Test Example 3: weedkilling efficacy through soil treatment; H: black-grass; settings: soil treatment, treatment dosage 320 g/ha
Outline: as §2

birds-eye speedwell = assay: Test Example 3: weedkilling efficacy through soil treatment; p: birds-eye speedwell; settings: soil treatment, treatment dosage 320 g/ha
Outline: as §2

barnyard grass [6] = assay: Test Example 3: weedkilling efficacy through soil treatment; F: barnyard grass; settings: soil treatment, treatment dosage 320 g/ha
Outline: as §2

chickweed = assay: Test Example 3: weedkilling efficacy through soil treatment; N: chickweed; settings: soil treatment, treatment dosage 320 g/ha
Outline: as §2

barnyard grass [7] = assay: Test Example 1: weedkilling efficacy, preemergent weed treatment in the submerged state; A: barnyard grass
Outline: as §3

SMILES	C (oval-leafed pondweed) weedkilling efficacy grade (oval-leafed pondweed [1]; treatment dosage 320 g/ha)	O: catchweed, weedkilling efficacy grade (catchweed)	g: rapeseed, effect on crop grade (rapeseed)	e: wheat, effect on crop grade (wheat)	I: Italian ryegrass, weedkilling efficacy grade (Italian ryegrass)	E: green foxtail, weedkilling efficacy grade (green foxtail)	D: crabgrass, weedkilling efficacy grade (crabgrass)	d: soybean, effect on crop grade (soybean)	J: common wind-grass, weedkilling efficacy grade (common wind-grass)	c: corn, effect on crop grade (corn)	M: fig-leafed goosefoot, weedkilling efficacy grade (fig-leafed goosefoot)	b: directly sown rice, effect on crop grade (directly sown rice)	G: wild oat, weedkilling efficacy grade (wild oat)	K: Indian mallow, weedkilling efficacy grade (Indian mallow)	L: redroot pigweed, weedkilling efficacy grade (redroot pigweed)	f: beet, effect on crop grade (beet)	H: black-grass, weedkilling efficacy grade (black-grass)	P: birds-eye speedwell, weedkilling efficacy grade (birds-eye speedwell)	F: barnyard grass, weedkilling efficacy grade (barnyard grass [6])	N: chickweed, weedkilling efficacy grade (chickweed)	other results
CC(C)(C(=O)Nc1cc(F)cc(Cl)n1)N1COCN(c2ccccc2)C1=O [A-2-14]	5 (weed kill ratio 90% or more, (practically complete withering))	5 (weed kill ratio 90% or more, (practically complete withering))	4 (weed kill ratio 70% or more, less than 90%)	4 (weed kill ratio 70% or more, less than 90%)	5 (weed kill ratio 90% or more, (practically complete withering))	5 (weed kill ratio 90% or more, (practically complete withering))	5 (weed kill ratio 90% or more, (practically complete withering))	4 (weed kill ratio 70% or more, less than 90%)	5 (weed kill ratio 90% or more, (practically complete withering))	4 (weed kill ratio 70% or more, less than 90%)	5 (weed kill ratio 90% or more, (practically complete withering))	5 (weed kill ratio 90% or more, (practically complete withering))	5 (weed kill ratio 90% or more, (practically complete withering))	5 (weed kill ratio 90% or more, (practically complete withering))	5 (weed kill ratio 90% or more, (practically complete withering))	4 (weed kill ratio 70% or more, less than 90%)	5 (weed kill ratio 90% or more, (practically complete withering))	5 (weed kill ratio 90% or more, (practically complete withering))	5 (weed kill ratio 90% or more, (practically complete withering))	5 (weed kill ratio 90% or more, (practically complete withering))	B (bulrush) weedkilling efficacy grade (bulrush [2]; treatment dosage 320 g/ha): 5 (weed kill ratio 90% or more, (practically complete withering)); a: transplanted rice, effect on crop grade (transplanted rice; treatment dosage 320 g/ha): 3 (weed kill ratio 40% or more, less than 70%); B: bulrush, weed kill grade (bulrush [3]; treatment dosage 320 g/ha): 5 (weed kill ratio 90% or more, (practically complete withering)); C: oval-leafed pondweed, weed kill grade (oval-leafed pondweed [4]; treatment dosage 320 g/ha): 5 (weed kill ratio 90% or more, (practically complete withering)); A (barnyard grass) weedkilling efficacy grade (barnyard grass [5]; treatment dosage 320 g/ha): 5 (weed kill ratio 90% or more, (practically complete withering)); A: barnyard grass, weed kill grade (barnyard grass [7]; treatment dosage 320 g/ha): 5 (weed kill ratio 90% or more, (practically complete withering))
CC(C)(C(=O)Nc1cc(Cl)cc(F)n1)N1COCN(c2ccccc2)C1=O [A-2-15]		5 (weed kill ratio 90% or more, (practically complete withering))	4 (weed kill ratio 70% or more, less than 90%)	4 (weed kill ratio 70% or more, less than 90%)	5 (weed kill ratio 90% or more, (practically complete withering))	5 (weed kill ratio 90% or more, (practically complete withering))	5 (weed kill ratio 90% or more, (practically complete withering))	3 (weed kill ratio 40% or more, less than 70%)	5 (weed kill ratio 90% or more, (practically complete withering))	4 (weed kill ratio 70% or more, less than 90%)	4 (weed kill ratio 70% or more, less than 90%)	5 (weed kill ratio 90% or more, (practically complete withering))	5 (weed kill ratio 90% or more, (practically complete withering))	4 (weed kill ratio 70% or more, less than 90%)	4 (weed kill ratio 70% or more, less than 90%)	3 (weed kill ratio 40% or more, less than 70%)	5 (weed kill ratio 90% or more, (practically complete withering))	5 (weed kill ratio 90% or more, (practically complete withering))	5 (weed kill ratio 90% or more, (practically complete withering))	5 (weed kill ratio 90% or more, (practically complete withering))	C (oval-leafed pondweed) weedkilling efficacy grade (oval-leafed pondweed [1]; treatment dosage 280 g/ha): 5 (weed kill ratio 90% or more, (practically complete withering)); B (bulrush) weedkilling efficacy grade (bulrush [2]; treatment dosage 280 g/ha): 5 (weed kill ratio 90% or more, (practically complete withering)); a: transplanted rice, effect on crop grade (transplanted rice; treatment dosage 280 g/ha): 4 (weed kill ratio 70% or more, less than 90%); B: bulrush, weed kill grade (bulrush [3]; treatment dosage 280 g/ha): 5 (weed kill ratio 90% or more, (practically complete withering)); C: oval-leafed pondweed, weed kill grade (oval-leafed pondweed [4]; treatment dosage 280 g/ha): 5 (weed kill ratio 90% or more, (practically complete withering)); A (barnyard grass) weedkilling efficacy grade (barnyard grass [5]; treatment dosage 280 g/ha): 5 (weed kill ratio 90% or more, (practically complete withering)); A: barnyard grass, weed kill grade (barnyard grass [7]; treatment dosage 280 g/ha): 5 (weed kill ratio 90% or more, (practically complete withering))
Cc1cc(F)nc(NC(=O)C(C)(C)N2COCN(c3ccccc3)C2=O)c1 [A-2-20]	5 (weed kill ratio 90% or more, (practically complete withering))	5 (weed kill ratio 90% or more, (practically complete withering))	4 (weed kill ratio 70% or more, less than 90%)	3 (weed kill ratio 40% or more, less than 70%)	5 (weed kill ratio 90% or more, (practically complete withering))	5 (weed kill ratio 90% or more, (practically complete withering))	5 (weed kill ratio 90% or more, (practically complete withering))	3 (weed kill ratio 40% or more, less than 70%)	5 (weed kill ratio 90% or more, (practically complete withering))	1 (weed kill ratio 5% or more, less than 20%)	4 (weed kill ratio 70% or more, less than 90%)	5 (weed kill ratio 90% or more, (practically complete withering))	5 (weed kill ratio 90% or more, (practically complete withering))	4 (weed kill ratio 70% or more, less than 90%)	4 (weed kill ratio 70% or more, less than 90%)	4 (weed kill ratio 70% or more, less than 90%)	5 (weed kill ratio 90% or more, (practically complete withering))	5 (weed kill ratio 90% or more, (practically complete withering))	5 (weed kill ratio 90% or more, (practically complete withering))	4 (weed kill ratio 70% or more, less than 90%)	B (bulrush) weedkilling efficacy grade (bulrush [2]; treatment dosage 320 g/ha): 5 (weed kill ratio 90% or more, (practically complete withering)); a: transplanted rice, effect on crop grade (transplanted rice; treatment dosage 320 g/ha): 3 (weed kill ratio 40% or more, less than 70%); B: bulrush, weed kill grade (bulrush [3]; treatment dosage 320 g/ha): 5 (weed kill ratio 90% or more, (practically complete withering)); C: oval-leafed pondweed, weed kill grade (oval-leafed pondweed [4]; treatment dosage 320 g/ha): 5 (weed kill ratio 90% or more, (practically complete withering)); A (barnyard grass) weedkilling efficacy grade (barnyard grass [5]; treatment dosage 320 g/ha): 5 (weed kill ratio 90% or more, (practically complete withering)); A: barnyard grass, weed kill grade (barnyard grass [7]; treatment dosage 320 g/ha): 5 (weed kill ratio 90% or more, (practically complete withering))
